{
  "source": "the pKa sets of Baltruschat and Czodrowski (2020)",
  "note": "Where “and” joins values, the source holds several entries; their conditions need not be identical. Equal entries are not always repeated. Where a SMILES comes first, the peptide text is derived from it.",
  "data": [
    {"conditions": "acidic group", "values": [
      {"smiles": "O=C1C=C(S(=O)(=O)[O-])/C(=N\\O)c2cn[nH]c21", "pKa": 8.6},
      {"smiles": "[O-]c1ncc2[nH]cnc2n1", "pKa": 11.9},
      {"smiles": "O=[N+]([O-])/C=C/c1cccc(O)c1", "pKa": 9.05},
      {"smiles": "C[NH+](C)Cc1cccc(O)c1", "pKa": 8.88},
      {"smiles": "NS(=O)(=O)c1ccc([N+](=O)[O-])cc1", "pKa": 8.63},
      {"smiles": "NC(=O)C#CC#C/C=C/C(=O)O", "pKa": 3.52},
      {"smiles": "Nc1ccc(O)c(N)c1", "pKa": 10.4},
      {"smiles": "Cc1cc(I)c(O)c(I)c1", "pKa": 6},
      {"smiles": "Nc1ccc(B(O)O)cc1", "pKa": 9.17},
      {"smiles": "Cc1cc(C)cc(O)c1", "pKa": 10.1},
      {"smiles": "O=[N+]([O-])c1cccc(S)c1", "pKa": 5.24},
      {"smiles": "C[NH+](C)CC(P(=O)([O-])O)P(=O)([O-])O", "pKa": 5.75},
      {"smiles": "NC(=O)[C@@H]1CCCN1", "pKa": 8.82},
      {"smiles": "O=C(/C=N/O)c1ccccc1", "pKa": 8.31},
      {"smiles": "O=C([O-])C[NH2+]CCc1nnn[nH]1", "pKa": 4.32},
      {"smiles": "O=C(O)c1cccc(S)c1", "pKa": 3.96},
      {"smiles": "Cc1cc(C)[nH]n1", "pKa": 15},
      {"smiles": "CO/C(C)=C\\C(=O)O", "pKa": 5.81},
      {"smiles": "Oc1ccc2nnccc2c1", "pKa": 7.52},
      {"smiles": "CCS(=O)O", "pKa": 2.27},
      {"smiles": "CN(C)c1nc2ncncc2[nH]1", "pKa": 9.73},
      {"smiles": "CCCCN(C(=O)c1ccc(O)cc1)c1ccc(/N=N/c2ccc3c(c2)OCCOCCOCCOCCOCCO3)cc1", "pKa": 9.12},
      {"smiles": "CC(C)C(=O)CC=O", "pKa": 6.68},
      {"smiles": "CCCC[Se](=O)O", "pKa": 5.29},
      {"smiles": "C[C@H]([NH3+])CCC(=O)O", "pKa": 4.13},
      {"smiles": "O=C1CCC(C2CCCCC2)C(=O)C1", "note": "(stereo unspecified)", "pKa": 5.5},
      {"smiles": "Oc1cc2ccccc2n[nH+]1", "pKa": 0.21},
      {"smiles": "O=C(O)c1cccs1", "pKa": 3.46},
      {"smiles": "Oc1ccc2ncsc2c1", "pKa": 9.21},
      {"smiles": "O=C1COC(=O)C1", "pKa": 3.76},
      {"smiles": "O=P([O-])(O)C([NH2+]Cc1ccccn1)c1ccccc1O", "note": "(stereo unspecified)", "pKa": 5.15},
      {"smiles": "Cc1ccc(C(=O)O)[nH]1", "pKa": 5},
      {"smiles": "O=N/C(Cc1ccccc1)=N\\O", "pKa": 5.3},
      {"smiles": "CNS(=O)(=O)C(F)(F)F", "pKa": 7.56},
      {"smiles": "O=C(c1ccccc1)c1ccc(O)c(O)c1", "pKa": 7.74},
      {"smiles": "C/C(=N\\O)c1ccccc1", "pKa": 11.3},
      {"smiles": "NS(=O)(=O)c1ccccc1", "pKa": 9.7},
      {"smiles": "Cn1ncnc1/N=N/O", "pKa": 4.45},
      {"smiles": "Oc1ccc(Cl)cc1CN1CCOCC1", "pKa": 9.85},
      {"smiles": "O=C(O)C[N+](=O)[O-]", "pKa": 1.63},
      {"smiles": "O=Cc1cccc(B(O)O)c1", "pKa": 7.8},
      {"smiles": "O=C([O-])[C@H](P)CC[C@H](P)C(=O)O", "pKa": 4.49},
      {"smiles": "Cc1cc(C#N)cc(C)c1O", "pKa": 8.27},
      {"smiles": "O=[N+]([O-])c1ccc([Se](=O)O)cc1", "pKa": 4},
      {"smiles": "O=C(CC(=O)c1ccccc1)Nc1ccc([N+](=O)[O-])cc1", "pKa": 8.91},
      {"smiles": "CC(=O)N1CCC[C@H]1C(=O)O", "pKa": 3.21},
      {"smiles": "Nc1ccc(S(=O)(=O)Nc2cnc(Cl)nc2)cc1", "pKa": 5.8},
      {"smiles": "O=C(O)C[C@]1(O)C[C@@H]2CC[C@H]1C2", "pKa": 4.46},
      {"smiles": "CCCCCC(=O)CC(C)=O", "pKa": 9.2},
      {"smiles": "NC(=S)Nc1cccc(Cl)c1", "pKa": 12},
      {"smiles": "C[NH+](C)CCNC(=O)/C=N/O", "pKa": 8.17},
      {"smiles": "O=C(O)C[NH2+]CCc1nnn[nH]1", "pKa": 3.28},
      {"smiles": "CCN(CC)C(=S)NC(=O)c1cccc(C)c1", "pKa": 8.36},
      {"smiles": "Oc1c(Br)cc(Br)c2cccnc12", "pKa": 7.3},
      {"smiles": "O=C(Cc1ccncc1)c1ccccc1", "pKa": 12.7},
      {"smiles": "Oc1[nH+]ncc2ccccc12", "pKa": -2},
      {"smiles": "CC1(C)NC(C)(C)[N+](O)=C1c1ccccc1", "pKa": 2.06},
      {"smiles": "Cc1c(O)cncc1C1CCCCC1", "pKa": 10},
      {"smiles": "Cc1cc(Cc2cc([N+](=O)[O-])ccc2[O-])cc(C)c1O", "pKa": 10.9},
      {"smiles": "CSCC(=O)O", "pKa": 3.67},
      {"smiles": "CNC(=O)CS", "pKa": 8.05},
      {"smiles": "Cc1cccc(C(=O)O)[nH+]1", "pKa": 0.9},
      {"smiles": "Cc1ccc(S(=O)(=O)NC(=O)OCc2ccc([N+](=O)[O-])cc2)cc1", "pKa": 3.8},
      {"smiles": "O=C1CCCC(=O)C1", "pKa": 5.26},
      {"smiles": "C[NH+](C)Cc1cc(C(C)(C)C)cc(C[NH+](C)C)c1O", "pKa": 6.3},
      {"smiles": "Cc1cc(N)c2ccccc2c1O", "pKa": 10.1},
      {"smiles": "CC(C)(C)CCCCc1ccc(O)cc1", "pKa": 11.2},
      {"smiles": "OC[C@H]1O[C@@H]2NC(=S)O[C@@H]2[C@H]1O", "pKa": 9.48},
      {"smiles": "CC(C)CNC(O)=S", "pKa": 0.38}
    ]},
    {"conditions": "basic group", "values": [
      {"smiles": "C=C(C)C(=O)OC(C)CN(C)C", "note": "(stereo unspecified)", "pKa": 7.96},
      {"smiles": "NC(CC(=O)[O-])C(=O)NC(CC(=O)[O-])C(=O)[O-]", "note": "(stereo not drawn) (H-Asp-Asp-OH; configuration not given here)", "pKa": 8.26},
      {"smiles": "COc1cc(S(C)=O)ccc1-c1nc2ncccc2[nH]1", "note": "(stereo unspecified)", "pKa": "3.91 and 3.89"},
      {"smiles": "CC1NCCCN1", "pKa": 9.09},
      {"smiles": "[O-]c1ncc2[nH]cnc2n1", "pKa": 8.43},
      {"smiles": "Nc1ccc(O)c(N)c1", "pKa": 5.7},
      {"smiles": "Cc1cccnn1", "pKa": 3.46},
      {"smiles": "C[NH+]1CCC(NN)CC1", "pKa": 5.7},
      {"smiles": "Nc1ccc(B(O)O)cc1", "pKa": 3.71},
      {"smiles": "CCN(CC)CC(=O)NC1CCc2ccccc21", "note": "(stereo unspecified)", "pKa": 8.19},
      {"smiles": "CC[NH+](CC)CCCCCCCC(C)Nc1c2ccc(Cl)cc2nc2ccc(OC)cc12", "note": "(stereo unspecified)", "pKa": 8},
      {"smiles": "CN(C)[C@H]1CCC[C@@H]1C#N", "pKa": 7.02},
      {"smiles": "CCCCN1CCCCC1C", "note": "(stereo unspecified)", "pKa": 10.7},
      {"smiles": "CCN(CC)CCC[NH+](CC)CC", "pKa": 8.2},
      {"smiles": "Cc1cc(C)[nH]n1", "pKa": 4.32},
      {"smiles": "Oc1ccc2nnccc2c1", "pKa": 3.65},
      {"smiles": "CN(C)c1nc2ncncc2[nH]1", "pKa": 4.8},
      {"smiles": "CN(C)CCCCC(=O)Oc1cccc([N+](=O)[O-])c1", "pKa": 10.1},
      {"smiles": "CSc1cnc2ccccc2c1", "pKa": 3.88},
      {"smiles": "CN1C[C@@H](CO)C[C@H]2c3cccc4[nH]cc(c34)C[C@@H]21", "pKa": 8.3},
      {"smiles": "O=P([O-])(O)C([NH2+]Cc1ccccn1)c1ccccc1O", "note": "(stereo unspecified)", "pKa": 3.12},
      {"smiles": "Cc1ccc(N(C)C)cc1", "pKa": 5.56},
      {"smiles": "CN(C)/C=N/c1ccc(Cl)cc1", "pKa": 8.46},
      {"smiles": "Nc1cccc2cn[nH]c12", "pKa": 3.05},
      {"smiles": "Cc1nnc2c(c1C)CCCC2", "pKa": 5.41},
      {"smiles": "Cc1ccncc1C", "pKa": 6.53},
      {"smiles": "Oc1ccc(Cl)cc1CN1CCOCC1", "pKa": 6.78},
      {"smiles": "[S-]c1cnc2ccccc2[nH+]1", "pKa": -1.11},
      {"smiles": "CCCCCCCCCCCCNCCCCCCCCCCCC", "pKa": 11},
      {"smiles": "O=C([O-])C[NH+](CC(=O)[O-])Cc1nc2ccccc2[nH]1", "pKa": 3.95},
      {"smiles": "CC(C)c1ccccn1", "pKa": 5.83},
      {"smiles": "N[C@@H]1CCCC[C@@H]1N", "pKa": 9.84},
      {"smiles": "CC(=O)/N=c1\\ccccn1C", "pKa": 7.12},
      {"smiles": "N#Cc1ccccn1", "pKa": -0.26},
      {"smiles": "CC(C)N/C=N/c1ccc(-c2cn(C)cn2)cc1", "pKa": 8.99},
      {"smiles": "CNCC/C(N)=N/O", "pKa": 9.6},
      {"smiles": "CCN(CC)CCS(=O)(=O)c1ccc(OC)c(OC)c1OC", "pKa": 7.41},
      {"smiles": "CCCCCCCCCCCCCCCCCCN", "pKa": 10.6},
      {"smiles": "Cc1[nH+]c2cccc(N)c2n1C", "pKa": 2.35},
      {"smiles": "CN(C)CC(C)(C)CN", "pKa": 10.1},
      {"smiles": "CCCc1c(O)n[nH]c1C", "pKa": 2.8},
      {"smiles": "CC1=NCCS1", "pKa": 5.29},
      {"smiles": "CC(Cc1ccccc1)N(C)CCC#N", "note": "(stereo unspecified)", "pKa": 6.95},
      {"smiles": "Oc1c(Br)cc(Br)c2cccnc12", "pKa": 2.6},
      {"smiles": "C1CCN2C[C@@H]3C[C@@H](CN4CCCC[C@@H]34)[C@H]2C1", "pKa": 11.3},
      {"smiles": "O=C(Cc1ccncc1)c1ccccc1", "pKa": 4.63},
      {"smiles": "Cc1c(O)cncc1C1CCCCC1", "pKa": 5.6},
      {"smiles": "NCCc1cccc(O)c1O", "pKa": 8.6},
      {"smiles": "Cn1ncc2c(Nc3ccccc3)ncnc21", "pKa": 3.53},
      {"smiles": "c1cc2c(cn1)CCCC2", "pKa": 6.65},
      {"smiles": "OCCN(CCO)CCc1nnn[nH]1", "pKa": 9.2},
      {"smiles": "Cc1cc(-n2[nH+]c(C)cc2C)[nH]n1", "pKa": -2.4},
      {"smiles": "Cc1n[nH]c2c(NCc3ccco3)ncnc12", "pKa": 4.84},
      {"smiles": "NC(=S)C1([NH3+])CCCCC1", "pKa": -8.08},
      {"smiles": "C[C@@H]1CCC[C@H](C)N1C", "pKa": 10.2},
      {"smiles": "Cc1cnc2c(c1)c(C)c(C)c1cc(C)cnc12", "pKa": 5.54},
      {"smiles": "Cc1cc(N)ccc1C[NH3+]", "pKa": 4.26},
      {"smiles": "CC(C)NCCC#N", "pKa": 8},
      {"smiles": "CC(C)(N)C(C)(C)N", "pKa": 10.1},
      {"smiles": "OCCc1cccnc1", "pKa": 5.38},
      {"smiles": "CO[C@H]1C=CC2=CCN3CCC(CO)=C(CCO)[C@]23C1", "pKa": 7.8},
      {"smiles": "O=C1CCc2ccccc2C1", "pKa": 12.8}
    ]}
  ]
}
